Consider 19 molecules from patent US20190031618A1, “BENZIMIDAZOLE DERIVATIVES USEFUL AS CB-1 INVERSE AGONISTS” (Janssen Pharmaceutica NV, priority 2015, published 2019).

SMILES strings stand for the structures. Some results are limits rather than exact numbers.

Test [1] deals with Human CB2R (Cannabinoid receptor 2) (Homo sapiens, UniProt P34972). Kind of test: CB-2 in vitro cAMP (HTRF) assay. Format: cell-based. The settings on record: HEK cells, cAMP HTRF, 250 nM forskolin; mean where tested more than once; read-out: CB2 HEK_cAMP EC50. From the text:
(§1) CB1 and CB2 receptors are Gi-coupled GPCR. Activation of CB1 and CB2 receptors results in a decrease in cAMP production. An inverse agonist of the CB1 or CB2 receptor results in the opposite effect, an increase of cAMP production. The principle of this assay is based on HTRF® technology (Homogeneous Time-Resolved Fluorescence). The method is a competitive immunoassay between native cAMP produced by cells and the cAMP labeled with the fluorophore d2. The tracer binding is quantified by a Mab anti-cAMP labeled with Eu3+TBP-NHS Cryptate (supplied as part of the assay kit). The specific signal (i.e. energy transfer) is inversely proportional to the concentration of cAMP in the standard or sample.
Human CB1R (Cannabinoid receptor 1) was stably transfected in HEK-293 cells (DiscoveRx, cat: 93-0200C1). Human CB2R (Cannabinoid receptor 2) was stably transfected in HEK-293 cells (DiscoveRx, cat: 93-0201C1). Cell cultures were maintained in media: DMEM (Invitrogen Cat#12430-054) supplemented with 10% HI FBS (Invitrogen Cat#16140-071), 1% L-glutamine (Invitrogen Cat#25030-081), 0.2 mg/ml Hygromycin B (Invitrogen Cat#10687-010), 600 μg/mL G418 (Invitrogen Cat#10131-035), and 1× Penn/Strep (Invitrogen 15140-122). After cell expansion, aliquots were cryo-stored in media containing 5% DMSO (Pierce Cat#20684).
(§2) One day prior to experiments media was warmed to 37° C. and the cryo-stored cells were thawed in a 37° C. water bath. The cells were then added to media (10× volume) and the mixture was centrifuged at 1000 RPM for 5 min. The supernate was removed and the cells were re-suspended in media. A sample of the cell suspension was evaluated on a Cedex XS automated cell counter (Innovatis Systems) to determine viable cells/ml. Additional media was added to the cells to achieve a final cell density of 4E5 cells/mL. The cells were then plated into 384 well PDL white solid bottom plates (Greiner, Cat#781945) at 20 μL per well using a Multidrop (Thermo Scientific). Cells were removed from Row P (location of cAMP standards). Two columns of cells were plated into a clear bottom 384 well PDL coated plate (Greiner, Cat#781944) to view confluence the day of the assay. The cell plates were lidded and stored for 15 minutes in a hood, then transferred to an incubator (37° C., 5% CO2, 95% humidity) overnight.
DMSO was added to all wells of 384 well V bottom polystyrene plate (Greiner, Cat#781280) except to columns 1 and 13, rows O and P and wells M13-M23 and N13-N23. Test compounds (60 μL, 10 mM) were added to Column 1 and 13 (A1 through N1 and A13 through L13). Test compounds were serially diluted 1/3 by transferring and mixing 20 μl sample with 40 μL DMSO.
DMSO (40 μL) was added to wells of 384 well V bottom polystyrene plate: O2 through O11, M14 through M23, N14 through N23, and O14 through O23. AM630 (also known as [6-iodo-2-methyl-1-[2-(4-morpholinyl)ethyl]-1H-indol-3-yl](4-methoxyphenyl)-methanone, Cayman Chemical, Cat#10006974) (60 μL, 10 mM) was added to O1; and 1-(2,4-dichlorophenyl)-7-[(4-fluorophenyl)methylene]-4,5,6,7-tetrahydro-N-1-piperidinyl-1H-benzimidazole-3-carboxamide (60 μL, 10 mM) was added to N13. The control was serially diluted 1/3 by transferring and mixing 20 μl sample with 40 μL DMSO. This process resulted 11 doses per control, 10 mM to […].
Cells plated the day prior to the assay in clear bottom plates were viewed on an inverse microscope to ensure confluency in the range of 60-75%. […]

Test [2] has as its target Human CB1R (Cannabinoid receptor 1) (Homo sapiens, UniProt P21554). Kind of test: CB-1 in vitro cAMP (HTRF) assay. Format: cell-based. The settings on record: HEK cells, cAMP HTRF, 250 nM forskolin; mean where tested more than once; read-out: CB1 HEK_cAMP EC50.
Source text: as §1
Human CB1R (Cannabinoid receptor 1) was stably transfected in HEK-293 cells (DiscoveRx, cat: 93-0200C1). Human CB2R (Cannabinoid receptor 2) was stably transfected in HEK-293 cells (DiscoveRx, cat: 93-0201C1).
as §2, with “The cells were then plated into 384 well PDL white solid bottom plates (Greiner, Cat#781945) at 20 μL per well using a Multidrop (Thermo Scientific).” left out, “Two columns of cells were plated into a clear bottom 384 well PDL coated plate (Greiner, Cat#781944) to view confluence the day of the assay.” left out
Test compounds (60 μL, 10 mM) were added to Column 1 and 13 (A1 through N1 and A13 through L13). Test compounds were serially diluted 1/3 by transferring and mixing 20 μl sample with 40 μL DMSO.
DMSO (40 μL) was added to wells of 384 well V bottom polystyrene plate: O2 through O11, M14 through M23, N14 through N23, and O14 through O23. […] The control was serially diluted 1/3 by transferring and mixing 20 μl sample with 40 μL DMSO. This process resulted 11 doses per control, 10 mM to 0.5 μM.
Cells plated the day prior to the assay in clear bottom plates were viewed on an inverse microscope to ensure confluency in the range of 60-75%.
A FLEXDROP (Perkin Elmer) was cleaned with ethanol then water, and primed with Buffer 2. A 384 well V bottom polypropylene plate containing d2 labelled cAMP and a second 384 well V bottom polypropylene plate containing anti-cAMP was prepared (50 μl per well). Media as “dumped” from the cell plate and 30 μL Buffer 1 was added to each well using a Multidrop. The content of the cell plate was again “dumped” and 10 μL Buffer 2 was added to each well using a Flexdrop. […] The cell plate was mixed (Speed 6, Lab-Line Instruments Titer Plate Shaker) and centrifuged (1000 RPMs, 1 min). […] The cell plate was again mixed (speed 6) and centrifuged (1000 RPMs, 1 min). The cell plate was incubated for 30 minutes at room temperature (˜27° C.). The contents of row P were removed and the cAMP standard dilutions were added in duplicate to Row P (P1-12 and P13-24). After incubation, 6 μL d2 labelled cAMP and 6 μL of Anti-cAMP were added to all wells of the cell plate using a BioMek FX (Beckman Coulter). The cell plate was again mixed (speed 6) and centrifuged (1000 RPMs, 1 min) and was incubated for 60 minutes in the dark at room Temp (˜27° C.).
After this final incubation, the cell plate was read in HTRF mode (fluorescence at 665 nm and 620 nm) on an Envision plate Reader (Perkin Elmer). The Envision reader outputs a ratio of channel 1/channel 2 fluorescence×10,000 (Normalized signal (NS)). Amount of cAMP in nM was calculated for each well (based on NS) from a cAMP standard curve located on each plate (at P1-12 and P13-24). EC50 values were determined from a 4-point fit (Hill equation) of a single 11-point compound dosing. Hill slope was fixed at 1.0.
In general terms: TR-FRET usually uses a lanthanide donor and a delayed reading to cut background.

As usually defined, the EC50 is the concentration needed to bring the measured effect to its halfway point.

Chain of Human CB1R (Cannabinoid receptor 1) (P21554 whole entry): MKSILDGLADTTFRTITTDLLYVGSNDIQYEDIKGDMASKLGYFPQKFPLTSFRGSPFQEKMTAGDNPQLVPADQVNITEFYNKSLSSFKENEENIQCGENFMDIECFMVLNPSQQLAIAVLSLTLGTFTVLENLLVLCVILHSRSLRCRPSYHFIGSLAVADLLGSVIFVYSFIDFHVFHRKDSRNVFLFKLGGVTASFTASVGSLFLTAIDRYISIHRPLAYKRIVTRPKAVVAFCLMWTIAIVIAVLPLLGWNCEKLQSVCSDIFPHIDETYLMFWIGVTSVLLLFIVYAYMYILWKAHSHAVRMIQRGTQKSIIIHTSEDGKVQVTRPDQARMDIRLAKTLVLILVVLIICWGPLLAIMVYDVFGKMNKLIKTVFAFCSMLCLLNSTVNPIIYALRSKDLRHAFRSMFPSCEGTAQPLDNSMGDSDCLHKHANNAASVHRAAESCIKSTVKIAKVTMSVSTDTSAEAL
Chain of Human CB2R (Cannabinoid receptor 2) (P34972 whole entry): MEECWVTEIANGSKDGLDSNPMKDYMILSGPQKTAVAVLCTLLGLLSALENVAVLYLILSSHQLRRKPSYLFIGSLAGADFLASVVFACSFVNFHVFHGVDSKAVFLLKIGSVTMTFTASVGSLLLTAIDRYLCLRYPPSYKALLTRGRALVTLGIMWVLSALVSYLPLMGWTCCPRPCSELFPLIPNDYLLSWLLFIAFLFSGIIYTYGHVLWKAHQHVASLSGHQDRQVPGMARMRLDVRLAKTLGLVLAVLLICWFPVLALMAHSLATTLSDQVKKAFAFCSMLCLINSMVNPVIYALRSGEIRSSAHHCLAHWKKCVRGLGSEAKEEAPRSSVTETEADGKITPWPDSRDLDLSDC

Consider `O=C(O)c1csc(CN2CCC(n3c(C4CC4)nc4ccc(C(c5ccc(Cl)cc5)c5ccc(Cl)cc5)cc43)CC2)c1` [Example 130], for which the results for the EC50 in test [1] and in test [2] were 8100 nM and 15.5 nM, respectively.

With `O=S(=O)(N1CCC(O)(Cn2c(C3CC3)nc3ccc(C(c4ccc(Cl)cc4)c4ccc(Cl)cc4)cc32)CC1)C(F)(F)F` [Example 295], the EC50 in test [1] stood at 9000 nM; in test [2], 5 nM.

Consider `O=C(O)c1ccc(S(=O)(=O)N[C@H]2CC[C@@H](n3c(C4CC4)nc4ccc(C(c5ccc(Cl)cc5)c5ccc(Cl)cc5)cc43)CC2)cc1` [Example 42], for which the figures for the half-maximal effective concentration (EC50) in test [1] and in test [2] were 8700 nM and 90.8 nM, respectively.

On to `O=C(O)COc1cccc(N2CCC(n3c(C4CC4)nc4ccc(C(c5ccc(Cl)cc5)c5ccc(Cl)cc5)cc43)CC2)c1` [Example 154], for which the results for the EC50 in test [1] and in test [2] were 8000 nM and 311 nM, respectively.

For `O=C(O)c1cc(CN2CCC(n3c(C4CC4)nc4ccc(C(c5ccc(Cl)cc5)c5ccc(Cl)cc5)cc43)CC2)ccn1` [Example 83], the values for the 50% effective concentration (EC50) in test [1] and in test [2] were 11300 nM and 42.6 nM, respectively.

Turning to `OC(c1ccc(Cl)cc1)(c1ccc2nc(CC(F)(F)F)n(CCc3cccc(Cl)c3)c2c1)c1nccs1` (centres unmarked) [Example 339], the EC50 in test [1] was more than 10000 nM; in test [2] it was 2410 nM.

For the molecule `FC(F)(F)Cc1nc2ccc(C(c3ccc(Cl)cc3)c3nccs3)cc2n1CCc1cccc(Cl)c1` (centres unmarked) [Example 340], the EC50 in test [1] was more than 10000 nM; in test [2], 1440 nM.

Regarding `COc1ccc(S(=O)(=O)N2CCC(n3c(C4CC4)nc4ccc(C(c5ccc(Cl)cc5)c5ccc(Cl)cc5)cc43)CC2)cc1C(N)=O` [Example 187], the values for the EC50 in test [1] and in test [2] were more than 10000 nM and 51.8 nM, respectively.

Turning to `O=C(O)COCC(c1ccc(Cl)cc1)(c1ccc(Cl)cc1)c1ccc2nc(C3CC3)n(C3CCN(S(=O)(=O)C(F)(F)F)CC3)c2c1` [Example 143], the EC50 is more than 10000 nM in test [1] and 3920 nM in test [2].

Turning to `Nc1ccc(S(=O)(=O)N2CCC(n3c(C4CC4)nc4ccc(C(c5ccc(Cl)cc5)c5ccc(Cl)cc5)cc43)CC2)cc1` [Example 151], the EC50 in test [1] was more than 10000 nM; in test [2], 66.5 nM.

For `COc1cccc(S(=O)(=O)N2CCC(n3c(C4CC4)nc4ccc(C(c5ccc(Cl)cc5)c5ccc(Cl)cc5)cc43)CC2)c1` [Example 261], the EC50 was more than 10000 nM in test [1] and 21.9 nM in test [2].

In the case of `CC(C)(C)OC(=O)N1CCC(n2c(C3CC3)nc3ccc(C(O)(c4ccc(Cl)cc4)c4ccc(Cl)cc4)cc32)CC1` [Example 41], the results for the EC50 in test [1] and in test [2] were more than 42000 nM and 30.6 nM, respectively.

Take `NC(=O)c1ccc(S(=O)(=O)N2CCC(n3c(C4CC4)nc4ccc(C(CO)(c5ccc(Cl)cc5)c5ccc(Cl)cc5)cc43)CC2)cc1` [Example 227]: the figures for the concentration giving a half-maximal response (EC50) in test [1] and in test [2] were more than 10000 nM and 2040 nM, respectively.

Regarding `O=C(O)c1ccc(S(=O)(=O)N[C@H]2CC[C@H](n3c(C4CC4)nc4ccc(C(c5ccc(Cl)cc5)c5ccc(Cl)cc5)cc43)CC2)cc1` [Example 21], the EC50 turned out to be 4540 nM in test [1] and 253 nM in test [2].

With `CC(C(O)c1ccccc1)n1c(C2CC2)nc2ccc(C(c3ccc(Cl)cc3)c3ccc(Cl)cc3)cc21` (centres unmarked) [Example 299], the values for the concentration for a half-maximal effect (EC50) in test [1] and in test [2] were 1030 nM and 578 nM, respectively.

In the case of `O=C(O)COc1ccc(Cn2c(C3CC3)nc3ccc(C(c4ccc(Cl)cc4)c4ccc(Cl)cc4)cc32)cc1` [Example 176], the EC50 in test [1] and in test [2] was more than 10000 nM each time.

For `CCOC(=O)c1nc2ccc(C(c3ccc(Cl)cc3)c3nccs3)cc2n1C1CCN(S(=O)(=O)C(F)(F)F)CC1` (centres unmarked) [Example 387], the half-maximal effective concentration (EC50) was more than 10000 nM in test [1] and 551 nM in test [2].

On to `CCCc1nc2ccc(C(c3ccc(Cl)cc3)c3nccs3)cc2n1-c1cccc(Cl)c1` (centres unmarked) [Example 431], for which the half-maximal effective concentration (EC50) in test [1] was more than 10000 nM; in test [2] it was 111 nM.

Consider `CC(c1ccc(Cl)cc1)n1c(C2CC2)nc2ccc(C(c3ccc(Cl)cc3)c3nccs3)cc21` (centres unmarked) [Example 401], for which the EC50 in test [1] was more than 10000 nM; in test [2], 6020 nM.
